Legend:
[1] = Octanol–water partition coefficient (Log Kow); format: physicochemical; conditions: mean; OECD TG 107 and OECD TG 117
Description: Generally, these parabens have very similar physico-chemical properties.

[2] = in vivo; conditions: for concentration at 1 h / Tmax / AUC(0-t) / Cmax: Wistar, rat, serum; for concentration at 1 h: oral; for Tmax / AUC(0-t) / Cmax: po; for AUC(0-t) / Cmax / AUC0-1 h/AUC0–t / C1h/Cmax / Clast / tlast: parent compound
Description: These studies were conducted similarly to OECD TG 417 applying 500 and 1000 mg/kg body weight (bw) test item via oral gavage to 10 males and 10 females per dose group. Focus of the toxicokinetic evaluation was on the measurement of the serum concentrations of the parent compounds and their (common) major metabolite p-hydroxybenzoic acid by […] in order to assess the systemic uptake and elimination of the parent compounds and this major metabolite [see also ECHA ([2017a])]. The limit of quantification was determined as 10 ng/mL for all parabens, and as 130 ng/mL for p-hydroxybenzoic acid. […] On account of these major aims, investigations of the faeces and urine were not included in the toxicokinetics screening studies.

[3] = Grouping and read-across of NOAEL (ECHA RAAF Scenario 5; analogue approach)
Description: The strength of evidence for the respective AEs was scored by the assessment options indicated in the RAAF ranging from Score 5 (acceptable with high confidence) to Score 1 (not acceptable) (ECHA [2017b]).

[4] = system: rats; conditions: acute oral, rats, OECD 401; ref ECHA dissemination portal; cited from earlier work
[5] = system: rats; conditions: rat, in vivo; cited from earlier work
[6] = system: rats; conditions: rat, in vivo; cited from earlier work; remark: listed apart in the source
[7] = system: rats; conditions: rat, in vivo; cited from earlier work; remark: listed apart in the source
[8] = system: bacteria; conditions: OECD 471; ref ECHA dissemination portal; cited from earlier work
[9] = system: rats; conditions: read-across from MP; ref ECHA dissemination portal; cited from earlier work
[10] = system: SD-JCL rats; conditions: feeding study, ref Sado 1973, Liebert 1984; cited from earlier work
[11] = system: rats; conditions: ref EFSA 2004; cited from earlier work
[12] = read-across by interpolation from methyl paraben and propyl paraben

CCOC(=O)c1ccc(O)cc1 [Ethyl paraben, Ethyl 4-hydroxybenzoate]
Log Kow [1]: 2.3 (mean; OECD TG 107 and OECD TG 117) | concentration at 1 h ([2]; female, 500 mg/kg): 116 ng/mL | concentration at 1 h ([2]; female, 1000 mg/kg): 305 ng/mL | Tmax ([2]; female, 500 mg/kg): 4.8 min | AUC(0-t) ([2]; female, 500 mg/kg, AUC0-1 h): 1080 ng·h/mL | AUC(0-t) ([2]; female, 500 mg/kg, AUC0–t): 1540 ng·h/mL | Cmax ([2]; female, 500 mg/kg): 5930 ng/mL | Tmax ([2]; female, 1000 mg/kg): 10.2 min | AUC(0-t) ([2]; female, 1000 mg/kg, AUC0-1 h): 1660 ng·h/mL | AUC(0-t) ([2]; female, 1000 mg/kg, AUC0–t): 3320 ng·h/mL | Cmax ([2]; female, 1000 mg/kg): 5150 ng/mL | Cmax ([2]; female, 1000 mg/kg, females): 5000 ng/mL | concentration at 1 h ([2]; male, 500 mg/kg): 71.6 ng/mL | concentration at 1 h ([2]; male, 1000 mg/kg): 96.6 ng/mL | Tmax ([2]; male, 500 mg/kg): 4.8 min | AUC(0-t) ([2]; male, 500 mg/kg, AUC0-1 h): 320 ng·h/mL | AUC(0-t) ([2]; male, 500 mg/kg, AUC0–t): 632 ng·h/mL | Cmax ([2]; male, 500 mg/kg): 1540 ng/mL | Tmax ([2]; male, 1000 mg/kg): 4.8 min | AUC(0-t) ([2]; male, 1000 mg/kg, AUC0-1 h): 490 ng·h/mL | AUC(0-t) ([2]; male, 1000 mg/kg, AUC0–t): 789 ng·h/mL | Cmax ([2]; male, 1000 mg/kg): 2390 ng/mL | Cmax ([2]; male, 1000 mg/kg, males): 2000 ng/mL | AUC0-1 h/AUC0–t ([2]; 500 mg/kg, female): 70% | C1h/Cmax ([2]; 500 mg/kg, female): 2.0% | Clast ([2]; 500 mg/kg, female): 23.9 ng/mL | tlast ([2]; 500 mg/kg, female): 8.0 h | AUC0-1 h/AUC0–t ([2]; 500 mg/kg, male): 51% | C1h/Cmax ([2]; 500 mg/kg, male): 4.7% | Clast ([2]; 500 mg/kg, male): 70.6 ng/mL | tlast ([2]; 500 mg/kg, male): 8.0 h | AUC0-1 h/AUC0–t ([2]; 1000 mg/kg, female): 50% | C1h/Cmax ([2]; 1000 mg/kg, female): 5.9% | Clast ([2]; 1000 mg/kg, female): 168 ng/mL | tlast ([2]; 1000 mg/kg, female): 8.0 h | AUC0-1 h/AUC0–t ([2]; 1000 mg/kg, male): 62% | C1h/Cmax ([2]; 1000 mg/kg, male): 4.0% | Clast ([2]; 1000 mg/kg, male): 33.3 ng/mL | tlast ([2]; 1000 mg/kg, male): 8.0 h | NOAEL for repeated-dose toxicity and DART ([3]; interpolated from methyl paraben and propyl paraben): 1000 mg/kg bw/day | NOAEL, EOGRTS: developmental and reproductive toxicity [3, 12]: NOAEL: 1000 (Read-across by interpolation) mg/kg body weight/day | NOAEL, developmental toxicity (OECD TG 414) [3, 12]: NOAEL: 1000 (Read-across by interpolation) mg/kg body weight/day | NOAEL, reproductive toxicity (OECD TG 421/422) [3, 12]: NOAEL: 1000 (Read-across by interpolation) mg/kg body weight/day | LD50 [4]: > 3100 (OECD 401; 1982) mg/kg bw | Skin irritation/skin corrosion classification [5]: Not irritating (OECD 404; 1983) | Eye irritation/eye corrosion classification [6]: Not irritating (OECD 405; 1983) | Skin sensitisation classification [7]: Not sensitising (equiv. OECD 406; 1981) | Mutagenicity in bacteria classification [8]: Not mutagenic [c] (OECD 471; 2012) | Genetic toxicity in vivo (rats) classification [9]: Not clastogenic (read-across from MP) | NOAEL, 25-week repeated dose toxicity [10]: NOAEL: 1200 (25-week repeated dose toxicity [a]) mg/kg body weight/day | NOAEL [11]: 1000 mg/kg bw/day

Reference: paper PMC7904550, “Application of grouping and read-across for the evaluation of parabens of different chain lengths with a particular focus on endocrine properties” (Archives of Toxicology, 2021)
